In patent US7259144B2, “Methods for diagnosing and treatment of hyperphosphatemic conditions using FGF20 polypeptides” (CuraGen Corporation, priority 2003, dated 2007):

Key:
[1] = tested on: Caco2 cells; test: Caco2 cell proliferation (3H thymidine incorporation) with FGF-20 and kinase inhibitors; assay type: cell-based; settings: inhibitor added 1 hr before FGF-20 (100 ng/ml), PD098059 1, 5, 20, 40 μM, SB203580 1, 10, 20 μM
Method: FIG. 7 depicts effect of kinase inhibitors in the proliferation of Caco2 cells. Caco2 cells were incubated with FGF-20 (100 ng/ml) in the presence of various concentrations (1, 5, 20 and 40 μM) of PD098059, inhibitor of MEK which is upstream of ERK or various concentrations (1, 10, 20 μM) of SB203580, inhibitor of p38 MAPK inhibitor.
In addition to the above results, MEK inhibitor PD098059 (1, 5, 20, and 40μM CALBIOCHEM, CA), and p38 MAPK inhibitor SB203580 (1,10,20 μM CALBIOCHEM, CA) were added to the Caco2 cell cultures 1 hr before FGF-20 treatment. Cellular proliferation was tested by standard 3H thymidine incorporation assay known in the art.

[2] = tested on: NIH 3T3 cells; test: Induction of DNA synthesis (BrdU incorporation) in NIH 3T3 cells; assay type: cell-based; settings: serum-starved NIH 3T3 cells; 18 h factor, 4 h BrdU incorporation
Method: Receptor Specificity NIH 3T3 cells were cultured in 96-well plates to approximately 100% confluence, washed and fed with DMEM without supplements (Life Technologies), and incubated for 24 h. Recombinant CG53135-01 or control protein was then added to the cells for 18 h. Control proteins used were aFGF (positive control) and platelet derived growth factor-BB (PDGFBB) (negative control). To analyze the effect of soluble FGFRs on CG53135-05 activity, recombinant CG53135-05, aFGF, or PDGF-BB (final concentrations of 10, 5 and 3 ng/mL, respectively), were mixed with soluble receptors (final concentrations of 0.2, 1 and 5 ug/mL), and incubated for 30 min at 37° C. prior to addition to serum-starved NIH 3T3 cells. Factor concentrations represent the amount of ligand needed to generate a half maximal BrdU response in NIH 3T3 cells. Soluble FGFRs were Fc chimeras of the following receptor forms (FGFR1β(IIIc); FGFR2β(IIIb); FGFR2α(IIIb); FGFR2α(IIIc); FGFR3α(IIIc); FGFR4) and were obtained from R&D Systems (Minneapolis, Minn.). The BrdU assay was performed according to the manufacturer's specifications (Roche Molecular Biochemicals, Indianapolis, Ind.) using a 4 h BrdU incorporation time.

[3] = tested on: HT-29 cells; test: Expression of C-Fos and C-Jun in HT-29 cells with FGF-20; assay type: cell-based; settings: 100 ng/ml, 10, 30, 60 minutes
Method: (§1) FIG. 6 depicts Effect of FGF-20 on expression of kinases in intestinal epithelial cells. Caco2 cells were incubated with FGF-20 (100 ng/ml) for 10, 30, 60 minutes and expression of p-Elk-1, p-ATF-2 and p-PKC was analyzed. Similarly, HT-29 cells were incubated with FGF-20 (100 ng/ml) for 10, 30, 60 minutes and expression of C-Fos and C-Jun was analyzed.
(§2) MAPK-dependent mechanism may be involved in the regulation of phosphate uptake by FGF signaling. To test this hypothesis, various kinases were tested for their expression in the presence of 100 ng/ml of FGF-20, in Caco2 cells. […] In HT-29 cells, C-Fos and C-Jun were induced, when cultured with FGF-20 (FIG. 6).

[4] = Serum phosphate levels after CG53135-05 treatment, rat model; assay type: in vivo; settings: slow bolus i.v. once daily, 0.05, 5, 50 mg/kg, dose-dependent (FIG. 1)
Method: (§3) To evaluate the role of FGF20 in reduction of phosphate levels, two different animal models (rat and rhesus monkeys) were tested for serum phosphates following treatment with FGF20. Recombinant human FGF20 and the serum phosphate levels were measured. General protocols for the rat and Rhesus monkey models are outlined in the following Tables 1 (for the rat) and 2 (for the Rhesus monkey) below:
(§4) Both animal groups were dosed via a slow bolus intravenous injection in the tail vein, once daily for 14 days. The first day of dosing was designated as study day (“SD”) 1. Animals were dosed through SD 14.

[5] = Serum phosphate levels after CG53135-05 treatment, Rhesus monkey model; assay type: in vivo; settings: slow bolus i.v. once daily, 1, 10 mg/kg, dose-dependent (FIG. 2)
Method: as §3, §4

[6] = tested on: Caco2 cells; test: Expression of signal transducing kinases in Caco2 cells with FGF-20; assay type: cell-based
Method: FIG. 4 depicts effect of FGF20 (CG53135) in stimulation of kinases in Caco2 cells. Expression of signal transducing kinases was analyzed after incubation of Caco2 cells with FGF-20 (100 ng/ml) for different time points (10, 30, 60 mins).
as §1, §2

[7] = tested on: OK cells; test: Phosphate uptake in OK cells; assay type: cell-based, opossum; settings: at 50 ng/ml
Method: FIG. 8 depicts effect of FGF9 protein in phosphate transport. OK cells were treated with various concentrations of FGF9 protein and phosphate uptake was measured as noted in Example 6.
FIG. 9 depicts effect of FGF10 protein in phosphate transport. OK cells were treated with various concentrations of FGF10 protein and phosphate uptake was measured as noted in Example 6.
Measurement of phosphate transport is performed in cultured renal proximal tubular epithelial cell line using opossum kidney (OK) cells, in the presence of FGF-20 (CG53135-05). Briefly, OK cells are grown at 37° C. in Dulbecco's modified Eagle's medium with 10% fetal calf serum and seeded in multi-well dishes (6, 24, 96 well dishes). The phosphate uptake in OK cells is determined according to the method described by Hafdi et al (Biochem. J. 1996, 320:615-621).
Role of FGF9 and FGF10 in phosphate uptake was measured by the method described in Biochem. J. 1996, 320:615-621.

COc1cccc(-c2cc(=O)c3ccccc3o2)c1N [PD098059]
cellular proliferation (3H thymidine incorporation) [1]: decrease in cellular proliferation

C[S+]([O-])c1ccc(-c2nc(-c3ccncc3)c(-c3ccc(F)cc3)[nH]2)cc1 (stereo not drawn) [SB203580]
cellular proliferation (3H thymidine incorporation) [1]: decrease in cellular proliferation

CG53135-05: Recombinant human fibroblast growth factor 20 produced in E. coli; Swiss-Prot Q9NP95; SEQ ID NO:1
amount of ligand needed to generate a half maximal BrdU response [2]: 10 ng/mL | C-Fos expression [3]: induced | C-Jun expression [3]: induced | serum phosphate levels [4]: Statistically significant reductions | serum phosphate levels [5]: Statistically significant reductions | expression of other kinases tested ([6]; 100 ng/ml, 10, 30, 60 mins): no other kinase tested, showed any significant induction | phosphorylated MAPK (p-p38MAPK) expression ([6]; 100 ng/ml, 10, 30, 60 mins): induced | expression of phosphorylated ATF-2 ([6]; 100 ng/ml, 10, 30, 60 minutes): increased expression | expression of phosphorylated Elk-1 ([6]; 100 ng/ml, 10, 30, 60 minutes): increased expression | expression of phosphorylated Protein Kinase C ([6]; 100 ng/ml, 10, 30, 60 minutes): minimal induction

aFGF: positive control protein; factor known to interact with all of the FGFR's under analysis [reference compound]
amount of ligand needed to generate a half maximal BrdU response [2]: 5 ng/mL

B1: PDGF-BB: platelet derived growth factor-BB, negative control protein (protein, UniProt P01127 82-190, looked up)
Platelet-derived growth …: SLGSLTIAEPAMIAECKTRTEVFEISRRLIDRTNANFLVWPPCVEVQRCSGCCNNRNVQCRPTQVQLRPVQVRKIEIVRKKPIFKKATVTLEDHLACKCETVAAARPVT
modifications: homodimer
notes: platelet derived growth factor-BB, negative control protein
amount of ligand needed to generate a half maximal BrdU response [2]: 3 ng/mL

B2: FGF10: human FGF 10 protein, Swiss-Prot Accession No: O15520 (protein, UniProt O15520 38-208, looked up)
Fibroblast growth factor 10: QALGQDMVSPEATNSSSSSFSSPSSAGRHVRSYNHLQGDVRWRKLFSFTKYFLKIEKNGKVSGTKKENCPYSILEITSVEIGVVAVKAINSNYYLAMNKKGKLYGSKEFNNDCKLKERIEENGYNTYASFNWQHNGRQMYVALNGKGAPRRGQKTRRKNTSAHFLPMVVHS
phosphate transport [7]: more efficient in inhibiting the phosphate transport
